Data from patent publication US11286255B2, “Pyridone carboxylic acid derivative or salt thereof” (WAKUNAGA PHARMACEUTICAL CO., LTD., priority 2017, dated 2022).

What was measured:
[1] = tested on: NCI-H460 (human non-small cell lung cancer cell line); assay: In vitro cell growth inhibition test against NCI-H460; type: cell-based; settings: 72 h, NCI-H460 cells, 3 days culture, WST-8 (Cell Counting Kit-8), 50% growth inhibition concentration
Description: Test Example 1: In Vitro Cell Growth Inhibition Test Against NCI-H460 (Human Non-Small Cell Lung Cancer Cell Line)
An NCI-H460 cell suspension was inoculated at 4×10^3 cells/100 μL/well (0.1 mL) to a 96-well flat-bottomed multiplate using RPMI-1640 (Sigma-Aldrich Co. LLC, R8758) medium containing 10% […] (fetal bovine serum, Thermo Fisher Scientific Inc.), and cultured at 37° C. for 1 day in an incubator containing 5% carbon dioxide. The compound of the present invention was dissolved at a concentration of 1 mM in dimethyl sulfoxide and further diluted into 5.00, 2.50, 1.25, 0.63, 0.31, 0.16, 0.078, and 0.039 μM (final concentrations) using dimethyl sulfoxide and RPMI-1640 medium. Each of these dilutions was added at 0.1 mL/well to the culture plate of the NCI-H460 cells mentioned above after removal of the medium, and the cells were cultured at 37° C. for 3 days in an incubator containing 5% carbon dioxide.
After the culture, Cell Counting Kit-8 (Dojindo Laboratories), which adopts WST-8 [2-(2-methoxy-4-nitrophenyl)-3-(4-nitrophenyl)-5-(2,4-disulfophenyl)-2H-tetrazolium monosodium salt] as a chromogenic substrate, was added at 10 μL/well, and the cells were cultured under the same conditions as above for 1 hour, followed by measurement of absorbance at 450 nm. A cell survival rate was calculated in terms of 50% growth inhibition concentration (IC50 (μM)) by the least square method with that of a control group defined as 100%.

[2] = tested on: relapsed/refractory acute myeloid leukemia; settings: overall survival targeting all patients; cited from earlier work

Q: For `Cc1cc(N2CC(c3ccon3)C2)nc2c1c(=O)c(C(=O)O)cn2-c1ncns1` [Example 499, 5-Methyl-7-[3-(1,2-oxazol-3-yl)azetidin-1-yl]-4-oxo-1-(1,2,4-thiadiazol-5-yl)-1,4-dihydro-1,8-naphthyridine-3-carboxylic acid], which IC50 [1] is on record?
A: 200 nM

Q: With `CCCn1nc(NC(=O)C2CN(c3nc4c(c(C)c3F)c(=O)c(C(=O)O)cn4-c3ncns3)C2)cc1C` [Example 218, 6-Fluoro-5-methyl-7-{3-[(5-methyl-1-propyl-1H-pyrazol-3-yl)carbamoyl]azetidin-1-yl}-4-oxo-1-(1,2,4-thiadiazol-5-yl)-1,4-dihydro-1,8-naphthyridine-3-carboxylic acid] as the compound, how does the IC50 [1] read?
A: 260 nM

Q: Which IC50 [1] does the source give for `O=C(O)c1cn(-c2nccs2)c2nc(N3CC(C(=O)NCC4CCCCO4)C3)c(F)cc2c1=O` (centres unmarked) [Example 173, 6-Fluoro-7-{3-[(oxan-2-ylmethyl)carbamoyl]azetidin-1-yl}-4-oxo-1-(1,3-thiazol-2-yl)-1,4-dihydro-1,8-naphthyridine-3-carboxylic acid] here?
A: 260 nM

Q: With `O=C(O)c1cn(-c2nccs2)c2nc(N3CC(CNc4ccccn4)C3)c(F)cc2c1=O` [Example 561, 6-Fluoro-4-oxo-7-(3-{[(pyridin-2-yl)amino]methyl}azetidin-1-yl)-1-(1,3-thiazol-2-yl)-1,4-dihydro-1,8-naphthyridine-3-carboxylic acid] as the compound, how does the IC50 [1] read?
A: 900 nM

Q: Which IC50 [1] does the source give for `COCC(COC)NC(=O)C1CN(c2cc(C)c3c(=O)c(C(=O)O)cn(-c4nccs4)c3n2)C1` [Example 243, 7-{3-[(1,3-Dimethoxypropan-2-yl)carbamoyl]azetidin-1-yl}-5-methyl-4-oxo-1-(1,3-thiazol-2-yl)-1,4-dihydro-1,8-naphthyridine-3-carboxylic acid] here?
A: 220 nM

Q: For `CNC1CN(c2ccc3c(=O)c(C(=O)O)cn(-c4nccs4)c3n2)CC1OC` (centres unmarked) [the compound, 1,4-dihydro-7-(3-methoxy-4-methylamino-1-pyrrolidinyl)-4-oxo-1-(2-thiazolyl)-1,8-naphthyridine-3-carboxylic acid, reference compound], which “therapeutic effect in overall survival (primary endpoint) as compared with a placebo group” value [2] is on record?
A: does not exhibit a significant therapeutic effect

Q: With `Cc1ccc(C(=O)NC2CN(c3cc(C)c4c(=O)c(C(=O)O)cn(-c5ncns5)c4n3)C2)nc1` [Example 584, 5-Methyl-7-[3-(5-methylpyridine-2-amido)azetidin-1-yl]-4-oxo-1-(1,2,4-thiadiazol-5-yl)-1,4-dihydro-1,8-naphthyridine-3-carboxylic acid] as the compound, how does the IC50 [1] read?
A: 210 nM

Q: With `CC(=O)C1CN(c2cc(C)c3c(=O)c(C(=O)O)cn(-c4nccs4)c3n2)C1` [Example 020, 7-(3-Acetylazetidin-1-yl)-5-methyl-4-oxo-1-(1,3-thiazol-2-yl)-1,4-dihydro-1,8-naphthyridine-3-carboxylic acid] as the compound, how does the IC50 [1] read?
A: 340 nM

Q: Which IC50 [1] does the source give for `CNOC1CN(c2cc(C)c3c(=O)c(C(=O)O)cn(-c4ncns4)c3n2)C1` [Example 553, 5-methyl-7-{3-[(methylamino)oxy]azetidin-1-yl}-4-oxo-1-(1,2,4-thiadiazol-5-yl)-1,4-dihydro-1,8-naphthyridine-3-carboxylic acid] here?
A: 380 nM

Q: For `CCOCCNC(=O)C1CN(c2cc(C)c3c(=O)c(C(=O)O)cn(-c4nc(-c5cccnc5)cs4)c3n2)C1` [Example 414, 7-{3-[(2-Ethoxyethyl)carbamoyl]azetidin-1-yl}-5-methyl-4-oxo-1-[4-(pyridin-3-yl)-1,3-thiazol-2-yl]-1,4-dihydro-1,8-naphthyridine-3-carboxylic acid], which IC50 [1] is on record?
A: 400 nM

Q: Which IC50 [1] does the source give for `CCONC1CN(c2cc(C)c3c(=O)c(C(=O)O)cn(-c4ncns4)c3n2)C1` [Example 541, 7-[3-(Ethoxyamino)azetidin-1-yl]-5-methyl-4-oxo-1-(1,2,4-thiadiazol-5-yl)-1,4-dihydro-1,8-naphthyridine-3-carboxylic acid] here?
A: 390 nM

Q: For `O=C(O)c1cn(-c2nccs2)c2nc(N3CC(C(=O)Nc4ccccn4)C3)c(F)cc2c1=O` [Example 083, 6-Fluoro-4-oxo-7-{3-[(pyridin-2-yl)carbamoyl]azetidin-1-yl}-1-(1,3-thiazol-2-yl)-1,4-dihydro-1,8-naphthyridine-3-carboxylic acid], which IC50 [1] is on record?
A: 190 nM

Q: With `CCOCC(COCC)NC(=O)C1CN(c2cc(C)c3c(=O)c(C(=O)O)cn(-c4nccs4)c3n2)C1` [Example 006, 7-{3-[(1,3-Diethoxypropan-2-yl)carbamoyl]azetidin-1-yl}-5-methyl-4-oxo-1-(1,3-thiazol-2-yl)-1,4-dihydro-1,8-naphthyridine-3-carboxylic acid] as the compound, how does the IC50 [1] read?
A: 110 nM

Q: With `O=C(O)c1cn(-c2ncns2)c2nc(N3CC(NOCc4ccccc4)C3)c(F)cc2c1=O` [Example 549, 7-{3-[(Benzyloxy)amino]azetidin-1-yl}-6-fluoro-4-oxo-1-(1,2,4-thiadiazol-5-yl)-1,4-dihydro-1,8-naphthyridine-3-carboxylic acid] as the compound, how does the IC50 [1] read?
A: 190 nM

Q: For `Cc1c(F)c(N2CC(n3cccn3)C2)nc2c1c(=O)c(C(=O)O)cn2-c1nccs1` [Example 487, 6-Fluoro-5-methyl-4-oxo-7-[3-(1H-pyrazol-1-yl)azetidin-1-yl]-1-(1,3-thiazol-2-yl)-1,4-dihydro-1,8-naphthyridine-3-carboxylic acid], which IC50 [1] is on record?
A: 160 nM

Q: Which IC50 [1] does the source give for `Cc1ccc(C(=O)NC2CN(c3nc4c(cc3F)c(=O)c(C(=O)O)cn4-c3nccs3)C2)nc1` [Example 586, 6-Fluoro-7-[3-(5-methylpyridine-2-amido)azetidin-1-yl]-4-oxo-1-(1,3-thiazol-2-yl)-1,4-dihydro-1,8-naphthyridine-3-carboxylic acid] here?
A: 410 nM

Q: For `Cc1cnc(C2CN(c3cc(C)c4c(=O)c(C(=O)O)cn(-c5ncns5)c4n3)C2)o1` [Example 489, 5-Methyl-7-[3-(5-methyl-1,3-oxazol-2-yl)azetidin-1-yl]-4-oxo-1-(1,2,4-thiadiazol-5-yl)-1,4-dihydro-1,8-naphthyridine-3-carboxylic acid], which IC50 [1] is on record?
A: 260 nM
